Measurements taken from patent US20230382862A1, “ERG ONCOGENE INHIBITORS” (The Henry M. Jackson Foundation for the Advancement of …, priority 2020, published 2023).

Columns and labels:
RIOK2 = molecular target: T1, RIOK2 (Homo sapiens, UniProt Q9BVS4); assay: RIOK2 levels in endothelial-derived primary cells (HUVEC); type: cell-based; conditions: within effective concentration range observed in VCaP, data not shown
T1 construct: endogenous in cells; host or cells: HUVEC primary endothelial cells (ATCC)
Experimental: (§1) TMPRSS2-ERG fusion positive ERG oncoprotein expressing prostate cancer cell line VCaP, was obtained from the American Tissue Culture Collection (ATCC; Manassas, Va.). The cells were grown in ATCC-recommended cell culture media under cell growth promoting conditions as recommended by the supplier (DMEM media; Gibco, Grand island, NY) supplemented with 10% fetal bovine serum (ATCC; Manassas, Va.). Normal primary endothelial cells, HUVEC-human umbilical vein endothelial cells, were also obtained from ATCC (Endothelial cell media; Cell biologics, Chicago, Ill.) supplemented with 10% FBS) as recommended by the supplier. The passage number of cell lines used in this study ranges from 1 to 6.
(§2) ERG protein is naturally expressed in endothelial cells.

HUVEC cells = assay: Growth of endothelial-derived primary cells (HUVEC); type: cell-based, human; conditions: within effective concentration range observed in VCaP, data not shown
Experimental: as §1, §2

VCaP cells = assay: VCaP cell growth inhibition / cell viability (Cell Titer-Glo); type: cell-based; conditions: Homo sapiens, 96 h
Experimental: TMPRSS2-ERG fusion positive ERG oncoprotein expressing prostate cancer cell line VCaP, was obtained from the American Tissue Culture Collection (ATCC; Manassas, Va.). The cells were grown in ATCC-recommended cell culture media under cell growth promoting conditions as recommended by the supplier (DMEM media; Gibco, Grand island, NY) supplemented with 10% fetal bovine serum (ATCC; Manassas, Va.). […] The passage number of cell lines used in this study ranges from 1 to 6.
48 hours following plating of cells, the appropriate test compound is added to each well of the tissue culture dish at concentrations (0, 0.001, 0.005, 0.01, 0.05, 0.10, 0.15, 0.2, 0.25, 0.3, 0.35, 0.4) μM/per well). The medium was replenished every 24 hours with fresh growth medium containing the same concentration of the same test compound for indicated period of the cell growth inhibition assay for 96 hours. At the end of the treatment the cells were analyzed for viability by labeling for ATPase activity. Cell growth were calculated by measuring bioluminescence using Cell Glow ATPase assay with Cell Titer-Glo luminescent cell viability assay (Promega, Madison, Wis.) detected by the HT Envision System (PerkinElmer, Waltham, Mass.). The average viable cell numbers of each concentration in triplicates were used to calculate the IC50 of each compound with the GraphPad Prism 7 software. […]

T1 sequence (Q9BVS4 whole entry): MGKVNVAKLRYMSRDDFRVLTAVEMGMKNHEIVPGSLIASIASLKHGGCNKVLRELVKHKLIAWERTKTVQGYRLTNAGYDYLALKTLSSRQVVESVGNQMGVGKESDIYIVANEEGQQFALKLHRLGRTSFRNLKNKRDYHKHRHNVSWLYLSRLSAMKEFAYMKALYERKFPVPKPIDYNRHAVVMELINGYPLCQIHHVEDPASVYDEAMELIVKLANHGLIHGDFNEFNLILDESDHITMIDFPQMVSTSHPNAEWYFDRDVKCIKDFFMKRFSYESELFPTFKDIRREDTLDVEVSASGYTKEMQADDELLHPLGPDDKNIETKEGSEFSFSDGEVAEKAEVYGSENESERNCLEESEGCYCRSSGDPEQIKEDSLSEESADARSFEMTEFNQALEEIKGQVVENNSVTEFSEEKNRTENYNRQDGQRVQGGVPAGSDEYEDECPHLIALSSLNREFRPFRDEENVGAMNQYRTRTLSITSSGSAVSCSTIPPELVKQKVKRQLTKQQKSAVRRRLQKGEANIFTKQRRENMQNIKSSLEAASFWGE

effect on RIOK2 levels of endothelial-derived primary cells (RIOK2): did not effect | IC50 (VCaP cells): 89 nM
Compound: CN(C)c1ccc(N=Nc2ccccn2)c(O)c1.CS(=O)(=O)O [Compound 2, 5-(dimethylamino)-2-(pyridin-2-yldiazenyl)phenol, methanesulfonic acid (1:1)]
effect on growth of endothelial-derived primary cells (HUVEC cells): did not effect
